From patent US6355799B1, “Substituted benzene compounds, process for their preparation, and herbicidal and defoliant compositions containing them” (ISK Americas Incorporated, priority 1997, dated 2002)

Experiments:
Format in all cases: in vivo
[1] = test system: upland rice (Oryza sp., var. Tebonnet, RICE); assay: Post-emerge test, crop safety; settings: post-emerge, 14 days after application, rating scale 0-100
Method in brief: (§1)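 Compounds in acetone were track-sprayed at 15-1000 g ai/ha (187 l/ha) on sandy loam pots: pre-emerge one day after seeding, post-emerge at 2-3 leaf stage with 0.25% v/v non-ionic surfactant. Phytotoxicity was rated 14 days later on a 0 (no damage) to 100 (complete death) scale.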

[2] = test system: field corn (Zea mays L., var. Dekalb 535, CORN); assay: Post-emerge test, crop safety; settings: post-emerge, 14 days after application, rating scale 0-100
Method in brief: as §1

[3] = test system: green foxtail (Setaria viridis, SETVI); assay: Post-emerge test, greenhouse herbicide activity screening; settings: post-emerge, 14 days after application, rating scale 0-100
Method in brief: (§2)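 Herbicidal damage is scored 0 (none) to 100 (complete plant death) two weeks after a simulated field spray. Rates span 15–1000 g ai/ha, delivered in acetone at 187 l/ha. For post-emergence treatments, plants have 2–3 leaves and the spray carries 0.25% v/v non-ionic surfactant.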

[4] = test system: ivyleaf morningglory (Ipomoea hederacea, IPOHE); assay: as above; settings: post-emerge, 14 days after application, rating scale 0-100
Method in brief: as §2

[5] = test system: barnyardgrass (Echinochloa crus-galli, ECHCG); assay: as above; settings: post-emerge, 14 days after application, rating scale 0-100
Method in brief: as §2

[6] = test system: velvetleaf (Abutilon theophrasti, ABUTH); assay: as above; settings: post-emerge, 14 days after application, rating scale 0-100
Method in brief: as §2

[7] = test system: redroot pigweed (Amaranthus retroflexus, AMARE); assay: as above; settings: post-emerge, 14 days after application, rating scale 0-100
Method in brief: as §2

[8] = test system: johnsongrass (Sorghum halepense, SORHA); assay: as above; settings: post-emerge, 14 days after application, rating scale 0-100
Method in brief: as §2

[9] = test system: large crabgrass (Digitaria sanguinalis, DIGSA); assay: as above; settings: post-emerge, 14 days after application, rating scale 0-100
Method in brief: as §2

[10] = test system: sicklepod (Cassia obtusifolia, CASOB); assay: as above; settings: post-emerge, 14 days after application, rating scale 0-100
Method in brief: as §2

[11] = test system: lambsquarters (Chenopodium album, CHEAL); assay: as above; settings: post-emerge, 14 days after application, rating scale 0-100
Method in brief: as §2

[12] = test system: green foxtail (Setaria viridis, SETVI); assay: Pre-emerge test, greenhouse herbicide activity screening; settings: pre-emerge, 14 days after application, scale 0-100
Method in brief: as §1

[13] = test system: ivyleaf morningglory (Ipomoea hederacea, IPOHE); assay: as above; settings: pre-emerge, 14 days after application, scale 0-100
Method in brief: as §1

[14] = test system: barnyardgrass (Echinochloa crus-galli, ECHCG); assay: as above; settings: pre-emerge, 14 days after application, scale 0-100
Method in brief: as §1

[15] = test system: velvetleaf (Abutilon theophrasti, ABUTH); assay: as above; settings: pre-emerge, 14 days after application, scale 0-100
Method in brief: as §1

[16] = test system: johnsongrass (Sorghum halepense, SORHA); assay: as above; settings: pre-emerge, 14 days after application, scale 0-100
Method in brief: as §1

[17] = test system: large crabgrass (Digitaria sanguinalis, DIGSA); assay: as above; settings: pre-emerge, 14 days after application, scale 0-100
Method in brief: as §1

[18] = test system: sicklepod (Cassia obtusifolia, CASOB); assay: as above; settings: pre-emerge, 14 days after application, scale 0-100
Method in brief: as §1

[19] = test system: lambsquarters (Chenopodium album, CHEAL); assay: as above; settings: pre-emerge, 14 days after application, scale 0-100
Method in brief: as §1

[20] = test system: upland rice (Oryza sp., var. Tebonnet, RICE); assay: Pre-emerge test, crop safety; settings: pre-emerge, 14 days after application, scale 0-100
Method in brief: (§3)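 Fourteen days after spraying, crop and weed injury was graded visually from 0, no effect, to 100, every plant dead. Test substances were dissolved in acetone and applied at 15–1000 g ai/ha with a flat-fan nozzle. Application was either pre-emergence, one day after sowing, or post-emergence at the 2–3 leaf stage.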

[21] = test system: field corn (Zea mays L., var. Dekalb 535, CORN); assay: Pre-emerge test, crop safety; settings: pre-emerge, 14 days after application, scale 0-100
Method in brief: as §3

[22] = test system: redroot pigweed (Amaranthus retroflexus, AMARE); assay: Pre-emerge test, greenhouse herbicide activity screening; settings: pre-emerge, 14 days after application, scale 0-100
Method in brief: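 Rating: 0–100 visual injury, 14 DAA. Application: acetone, 187 l/ha, 15–1000 g ai/ha, flat-fan track sprayer with nozzle 40–45 cm above soil or canopy. Post-emerge runs used 0.25% v/v surfactant on 2–3 leaf plants.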

COc1c(Cl)cc(F)c(-n2c(=O)cc(C(F)(F)F)n(C)c2=O)c1NC(=O)CSc1ccc2ccccc2c1 [2-169]
RICE phytotoxicity rating (crop damage) ([1]; 63 g ai/ha): 10 | RICE phytotoxicity rating (crop damage) ([1]; 250 g ai/ha): 10 | CORN phytotoxicity rating (crop damage) ([2]; 63 g ai/ha): 10 | CORN phytotoxicity rating (crop damage) ([2]; 250 g ai/ha): 10 | SETVI phytotoxicity rating ([3]; 63 g ai/ha): 0 | SETVI phytotoxicity rating ([3]; 250 g ai/ha): 0 | IPOHE phytotoxicity rating ([4]; 63 g ai/ha): 50 | IPOHE phytotoxicity rating ([4]; 250 g ai/ha): 40 | ECHCG phytotoxicity rating ([5]; 63 g ai/ha): 0 | ECHCG phytotoxicity rating ([5]; 250 g ai/ha): 0 | ABUTH phytotoxicity rating ([6]; 63 g ai/ha): 70 | ABUTH phytotoxicity rating ([6]; 250 g ai/ha): 80 | AMARE phytotoxicity rating ([7]; 63 g ai/ha): 10 | AMARE phytotoxicity rating ([7]; 250 g ai/ha): 0 | SORHA phytotoxicity rating ([8]; 63 g ai/ha): 0 | SORHA phytotoxicity rating ([8]; 250 g ai/ha): 0 | DIGSA phytotoxicity rating ([9]; 63 g ai/ha): 0 | DIGSA phytotoxicity rating ([9]; 250 g ai/ha): 0 | CASOB phytotoxicity rating ([10]; 63 g ai/ha): 10 | CASOB phytotoxicity rating ([10]; 250 g ai/ha): 10 | CHEAL phytotoxicity rating ([11]; 63 g ai/ha): 30 | CHEAL phytotoxicity rating ([11]; 250 g ai/ha): 40 | phytotoxicity rating SETVI ([12]; 63 g ai/ha): 0 | phytotoxicity rating SETVI ([12]; 250 g ai/ha): 30 | phytotoxicity rating IPOHE ([13]; 63 g ai/ha): 10 | phytotoxicity rating IPOHE ([13]; 250 g ai/ha): 20 | phytotoxicity rating ECHCG ([14]; 63 g ai/ha): 0 | phytotoxicity rating ECHCG ([14]; 250 g ai/ha): 0 | phytotoxicity rating ABUTH ([15]; 63 g ai/ha): 0 | phytotoxicity rating ABUTH ([15]; 250 g ai/ha): 90 | phytotoxicity rating SORHA ([16]; 63 g ai/ha): 0 | phytotoxicity rating SORHA ([16]; 250 g ai/ha): 20 | phytotoxicity rating DIGSA ([17]; 63 g ai/ha): 0 | phytotoxicity rating DIGSA ([17]; 250 g ai/ha): 80 | phytotoxicity rating CASOB ([18]; 63 g ai/ha): 20 | phytotoxicity rating CASOB ([18]; 250 g ai/ha): 30 | phytotoxicity rating CHEAL ([19]; 63 g ai/ha): 65 | phytotoxicity rating CHEAL ([19]; 250 g ai/ha): 100 | phytotoxicity rating RICE (crop damage) ([20]; 63 g ai/ha): 10 | phytotoxicity rating RICE (crop damage) ([20]; 250 g ai/ha): 40 | phytotoxicity rating CORN (crop damage) ([21]; 63 g ai/ha): 0 | phytotoxicity rating CORN (crop damage) ([21]; 250 g ai/ha): 0 | phytotoxicity rating AMARE ([22]; 63 g ai/ha): 70 | phytotoxicity rating AMARE ([22]; 250 g ai/ha): 80

CCOC(=O)CSCC(=O)Nc1c(OC)c(Cl)cc(F)c1-n1c(=O)cc(C(F)(F)F)n(C)c1=O [2-170]
RICE phytotoxicity rating (crop damage) ([1]; 63 g ai/ha): 5 | RICE phytotoxicity rating (crop damage) ([1]; 250 g ai/ha): 10 | CORN phytotoxicity rating (crop damage) ([2]; 63 g ai/ha): 5 | CORN phytotoxicity rating (crop damage) ([2]; 250 g ai/ha): 15 | SETVI phytotoxicity rating ([3]; 63 g ai/ha): 10 | SETVI phytotoxicity rating ([3]; 250 g ai/ha): 20 | IPOHE phytotoxicity rating ([4]; 63 g ai/ha): 50 | IPOHE phytotoxicity rating ([4]; 250 g ai/ha): 95 | ECHCG phytotoxicity rating ([5]; 63 g ai/ha): 0 | ECHCG phytotoxicity rating ([5]; 250 g ai/ha): 20 | ABUTH phytotoxicity rating ([6]; 63 g ai/ha): 35 | ABUTH phytotoxicity rating ([6]; 250 g ai/ha): 90 | AMARE phytotoxicity rating ([7]; 63 g ai/ha): 20 | AMARE phytotoxicity rating ([7]; 250 g ai/ha): 30 | SORHA phytotoxicity rating ([8]; 63 g ai/ha): 0 | SORHA phytotoxicity rating ([8]; 250 g ai/ha): 10 | DIGSA phytotoxicity rating ([9]; 63 g ai/ha): 0 | DIGSA phytotoxicity rating ([9]; 250 g ai/ha): 30 | CASOB phytotoxicity rating ([10]; 63 g ai/ha): 10 | CASOB phytotoxicity rating ([10]; 250 g ai/ha): 60 | CHEAL phytotoxicity rating ([11]; 63 g ai/ha): 60 | CHEAL phytotoxicity rating ([11]; 250 g ai/ha): 50 | phytotoxicity rating SETVI ([12]; 63 g ai/ha): 60 | phytotoxicity rating SETVI ([12]; 250 g ai/ha): 90 | phytotoxicity rating IPOHE ([13]; 63 g ai/ha): 40 | phytotoxicity rating IPOHE ([13]; 250 g ai/ha): 70 | phytotoxicity rating ECHCG ([14]; 63 g ai/ha): 0 | phytotoxicity rating ECHCG ([14]; 250 g ai/ha): 50 | phytotoxicity rating ABUTH ([15]; 63 g ai/ha): 90 | phytotoxicity rating ABUTH ([15]; 250 g ai/ha): 100 | phytotoxicity rating SORHA ([16]; 63 g ai/ha): 20 | phytotoxicity rating SORHA ([16]; 250 g ai/ha): 80 | phytotoxicity rating DIGSA ([17]; 63 g ai/ha): 30 | phytotoxicity rating DIGSA ([17]; 250 g ai/ha): 90 | phytotoxicity rating CASOB ([18]; 63 g ai/ha): 30 | phytotoxicity rating CASOB ([18]; 250 g ai/ha): 60 | phytotoxicity rating CHEAL ([19]; 63 g ai/ha): 100 | phytotoxicity rating CHEAL ([19]; 250 g ai/ha): 100 | phytotoxicity rating RICE (crop damage) ([20]; 63 g ai/ha): 10 | phytotoxicity rating RICE (crop damage) ([20]; 250 g ai/ha): 0 | phytotoxicity rating CORN (crop damage) ([21]; 63 g ai/ha): 10 | phytotoxicity rating CORN (crop damage) ([21]; 250 g ai/ha): 15 | phytotoxicity rating AMARE ([22]; 63 g ai/ha): 70 | phytotoxicity rating AMARE ([22]; 250 g ai/ha): 100
